Test system: RCC4/VHL
Assay: XTT cell viability assay, RCC4 with VHL-reintroduced (RCC4/VHL) versus RCC4, selectivity ratio
Assay type: cell-based
Settings: first TABLE 1 (II series)
Procedure: RCC4 parental and RCC4 with VHL-reintroduced (RCC4/VHL), SN12C and SN12C-CSCG-VHL shRNA were maintained in DMEM supplemented with 10% FCS.
For 2,3-bis[2-methoxy-4-nitro-5-sulfophenyl]-2H-tetrazolium-5-carboxanilide (XTT) assays, five thousand cells were plated in 96-well plates. The next day, vehicle (DMSO) or drug was added by serial dilution. Four days later, media were aspirated, XTT solution (0.3 mg/ml of XTT (Sigma), 2.65 mg/ml N-methyl dibenxopyrazine methyl sulfate (Simga) in phenol red-free media) was added, and the plates were incubated at 37° C. for 1-2 hours. Metabolism of XTT was quantified by measuring the absorbance at 450 nm. IC50s were calculated using linear interpolation. For clonogenic survival assays, three hundred cells were plated per 60 mm tissue culture dish. The cells were allowed to attach overnight and then treated with vehicle or drug for 14 days. Colonies were fixed and stained with crystal violet (0.1% crystal violet in 95% ethanol). All conditions were measured in triplicate and each experiment was done in duplicate or triplicate. To determine necrosis, cells were treated with drug for a given time point. Media and cells were collected, centrifugated, and resuspended in 0.4% trypan blue (Invitrogen). Live and dead cells were counted on a hematocytometer.
The designation A reflects an IC50 of <1 nM; B reflects an IC50 ranging from 1 to 20 nM; and C is an IC50 of >20 nM. The designation “a” reflects a ratio of RCC4/RCC-VHL+ ranging from 1 to ≦10; “b” reflects from 10 to ≦100; “c” reflects a ratio of >100. Compounds 1-29 have an IC50 value of ≦10 μM when tested in the above assay.

SMILES	Ratio = IC50RCC4/VHL/IC50RCC4
O=C(Nc1cccnc1)c1ccc(CNS(=O)(=O)c2ccsc2)cc1 [II-5, N-(3-Pyridinyl)-4-{[(3-thienylsulfonyl)amino]methyl}benzamide]	a (a ratio of RCC4/RCC-VHL+ ranging from 1 to ≦10)
O=C(Nc1cccnc1)c1ccc(CNS(=O)(=O)c2ccc(Oc3ccccc3)nc2)cc1 [II-3, 4-({[(6-Phenoxy-3-pyridinyl)sulfonyl]amino}methyl)-N-(3-pyridinyl)benzamide]	a (a ratio of RCC4/RCC-VHL+ ranging from 1 to ≦10)
O=C(Nc1cccnc1)c1ccc(CNS(=O)(=O)c2ccco2)cc1 [II-8, N-(3-Pyridinyl)-4-{[(2-furanylsulfonyl)amino]methyl}benzamide]	a (a ratio of RCC4/RCC-VHL+ ranging from 1 to ≦10)
O=C(Nc1cccnc1)c1ccc(CNS(=O)(=O)c2cccs2)cc1 [II-4, N-(3-Pyridinyl)-4-{[(2-thienylsulfonyl)amino]methyl}benzamide]	a (a ratio of RCC4/RCC-VHL+ ranging from 1 to ≦10)

Same assay, conditions: second TABLE 1 (Examples 39-55)

SMILES	Ratio (IC50 RCC4 Proficient VHL)/IC50 RCC4 Deficient VHL)
Cc1oc(-c2ccc(C(=O)NCc3cccnc3)cc2)nc1CS(=O)(=O)[C@H]1CC[C@H](N)CC1 [Example 44, 4-(4-[[(4-Aminocyclohexane)sulfonyl]methyl]-5-methyl-1,3-oxazol-2-yl)-N-(pyridin-3-ylmethyl)benzamide]	b (from 10 to ≦100)
Cc1oc(-c2ccc(C(=O)NCc3cccnc3)cc2)nc1CS(=O)(=O)C1CCN(CC(C)C)CC1 [Example 53, 4-(5-methyl-4-[[1-(2-methylpropyl)piperidine-4-sulfonyl]methyl]-1,3-oxazol-2-yl)-N-(pyridin-3-ylmethyl)benzamide]	a (a ratio of RCC4/RCC-VHL+ ranging from 1 to ≦10)
Cc1oc(-c2ccc(C(=O)NCc3cccnc3)cc2)nc1CS(=O)(=O)[C@H]1CC[C@@H](N2CCCCC2)CC1 [Example 43]	b (from 10 to ≦100)
Cc1oc(-c2ccc(C(=O)NCc3cccnc3)cc2)nc1CS(=O)(=O)[C@H]1CC[C@H](N2CCCC2)C1 [Example 48]	b (from 10 to ≦100)
Cc1oc(-c2ccc(C(=O)NCc3cccnc3)cc2)nc1CS(=O)(=O)C1CCN(C2CCCC2)CC1 [Example 54]	b (from 10 to ≦100)
Cc1oc(-c2ccc(C(=O)NCc3cccnc3)cc2)nc1CS(=O)(=O)[C@@H]1CC[C@H](N2CCCCC2)C1 [Example 52]	a (a ratio of RCC4/RCC-VHL+ ranging from 1 to ≦10)
Cc1oc(-c2ccc(C(=O)NCc3cccnc3)cc2)nc1CS(=O)(=O)[C@H]1CC[C@@H](N2CCCC2)CC1 [Example 42]	b (from 10 to ≦100)
Cc1oc(-c2ccc(C(=O)NCc3cccnc3)cc2)nc1CS(=O)(=O)[C@H]1CC[C@H](N)C1 [Example 47]	b (from 10 to ≦100)
Cc1oc(-c2ccc(C(=O)NCc3cccnc3)cc2)nc1CS(=O)(=O)C1CCN(C)CC1 [Example 40, 4-(5-Methyl-4-((1-methylpiperidin-4-ylsulfonyl)methyl)oxazol-2-yl)-N-(pyridin-3-ylmethyl)benzamide]	b (from 10 to ≦100)
Cc1oc(-c2ccc(C(=O)NCc3cccnc3)cc2)nc1CS(=O)(=O)[C@@H]1CC[C@H](N2CCCC2)C1 [Example 51]	b (from 10 to ≦100)
Cc1oc(-c2ccc(C(=O)NCc3cccnc3)cc2)nc1CS(=O)(=O)[C@H]1CC[C@H](N2CCCC2)CC1 [Example 45]	b (from 10 to ≦100)
Cc1oc(-c2ccc(C(=O)NCc3cccnc3)cc2)nc1CS(=O)(=O)[C@H]1CC[C@H](N2CCCCC2)CC1 [Example 46]	b (from 10 to ≦100)

From patent US9296732B2, “Substituted benzamides and their uses” (The Board of Trustees of the Leland Stanford Junior …, priority 2012, dated 2016)
